According to US20170095565A1, “CHEMICALLY MODIFIED SMALL MOLECULES” (Nektar Therapeutics, priority 2003, published 2017):
Where a name gives a salt, the structure may show the parent alone. Read-outs that look alike come from different tables or passages of the source.

How the values were obtained:
[1] = PEG-CIPRO absorption from lung after IT administration; conditions: Cipro and PEG-Cipro
From the text: In vivo absorption data was collected through rat studies, in which, following IT administration to rats, whole lungs were excised and analyzed for test article concentration.

[2] = Lung residence after intratracheal administration (BAL, BAL cells, residual lung, serum); assay type: in vivo, rats; conditions: for half-life: rat, other: intratracheal (IT), 30 μg
Method: To determine the effect of PEG length on residence time in the lung, a series of in vivo experiments was performed in which each PEG-FITC species was administered intratracheally (IT) to rats, and the amount remaining in the lung was determined at progressive time points. For each species, 30 μg PEG-FITC, prepared in PBS/0.5% BSA, was administered IT to rats (300 μL of a 100 μg/mL solution). […] Following the lavage, lungs were excised, and samples of serum were extracted. The resulting lavage solution was then centrifuged to pellet the cellular fraction (BAL cells) and separate it from the BAL supernatant.
Samples from BAL, BAL cells and serum were read directly in microtiter plates with no prior treatment. To quantitate PEG-FITC remaining in the residual lung material, however, the excised lungs were homogenized and PEG-FITC was extracted in ethanol.
For all samples, quantitation was performed by interpolation from a standard curve generated from known concentrations of the relevant molecule prepared in the correlating matrix. Thus for samples of BAL and BAL cells, the standard samples were prepared in 0.9% NaCl, for serum samples, the standards were prepared in commercially obtained rat serum, and for lung extracts, the standard samples were prepared in PBS: Ethanol (1:3).
For BAL studies, the total amount remaining was calculated for each animal from the product of the concentration and the BAL volume recorded. For BAL cells, the pellet was resuspended in 1 mL; the amount present was calculated accordingly. For residual lung tissue, the amount present in both lungs (μg/lung) was calculated from the product of the concentration and the homogenate volume. Note that although the nominal dose delivered in each experiment was 30 μg, the dosing solution was analyzed from the same standard curve for each experiment and the actual delivered dose was calculated. The data shown throughout this specification are thus corrected for each PEG-FITC species respectively and are represented as percentage dose administered. The doses delivered in each experiment are represented in Table VIII below.

[3] = Cell-based permeability in Calu-3 cells; assay type: in vitro ADME; conditions: human
Method: In vitro cell-based experiments (in a Calu-3 assay) were performed for PEG-FITC conjugates. The Calu-3 cells were cultured with an apical air-interface to mimic the in vivo epithelium.

Row | Elimination from lung (rat IT) [1] | Portion of dose associated with BAL cells ([2]; 10 min) | Dose recovered in BAL ([2]; 10 min following IT administration) | Serum peak as proportion of administered dose ([2]; 10 min post dose) | Peak amount in serum ([2]; 10 min post dose, based on rat serum volume of approximately 8 mL) | Dose recovered in combined lung-derived fractions ([2]; 10 min post-dose) | Elimination from lung (rat IT) ([2]; fluorescein, PEG and PEG-FITC) | BAL k-el ([2]; rat IT, BAL supernatant) | BAL t1/2-el ([2]; rat IT, elimination half-life from BAL) | half-life ([2]; bronchoalveolar lavage (BAL) supernatant, rat IT, elimination half-life from BAL, read-out: BAL t1/2-el) | half-life ([2]; combined lung compartments, rat IT, combined lung compartments, read-out: Lung t1/2-el (converted)) | BAL t90 ([2]; time at which 90% of the dose would be eliminated) | BAL t99 ([2]; time at which 99% of the dose would be eliminated) | Papp [3] | SMILES
1 | 10.24 h⁻¹ | – | – | – | – | – | – | – | – | – | – | – | – | – | O=C(O)c1cn(C2CC2)c2cc(N3CCNCC3)c(F)cc2c1=O [Cipro HCl, ciprofloxacin]
2 | – | approximately 13% | less than 50% | less than 10% | approximately 2 μg | less than 50% | 1.38 h⁻¹ | 1.3253 | 31.4 min | < 31.2 min | 30.1 min | 1.74 h | 3.5 h | 0.34 ×10⁻⁶ cm/s | O=C1OC2(c3ccc(O)cc3Oc3cc(O)ccc32)c2ccccc21 [Sodium fluorescein, sodium fluorescein]
